Data reported in patent US20260035387A1 (BIOGEN MA INC., priority 2022, published 2026).
pIC50: −log10 of the molar value.

Tested on: mutant Huntington (HTT) protein
Assay: HTT Mutant HTRF iPSC assay (mHTT protein lowering)
Format: cell-based
Settings: human iPSC derived from a HTT patient with a poly-Q49 mutation

SMILES: Cc1cn2cc(NC(=O)c3cc4ccc(N5CCC5CN(C)C)nc4s3)ccc2n1 (stereo not drawn) [Compound 48, 6-(2-((dimethylamino)methyl)azetidin-1-yl)-N-(2-methylimidazo[1,2-a]pyridin-6-yl)thieno[2,3-b]pyridine-2-carboxamide]
- pIC50: 5.05 to 6.00

SMILES: Cc1cn2cc(NC(=O)c3nc4ccc(N5C[C@H]6CN(C)C[C@H]65)nc4s3)cc(F)c2n1 [Compound 104, N-(8-fluoro-2-methylimidazo[1,2-a]pyridin-6-yl)-5-((1R,5S)-3-methyl-3,6-diazabicyclo[3.2.0]heptan-6-yl)thiazolo[5,4-b]pyridine-2-carboxamide]
- pIC50: > 7.00

SMILES: COc1cc2nn(C)cc2cc1NC(=O)c1cc2nc(N3CC[C@H](N4CCC4)C3)ccc2o1 [Compound 173, (S)-5-(3-(azetidin-1-yl)pyrrolidin-1-yl)-N-(6-methoxy-2-methyl-2H-indazol-5-yl)furo[3,2-b]pyridine-2-carboxamide]
- pIC50: 6.00 to 7.00

SMILES: Cc1cn2cc(NC(=O)c3cc4ncc(N5CCC6(CN(C)C6)C5)nc4s3)cc(F)c2n1 [Compound 257, N-(8-fluoro-2-methylimidazo[1,2-a]pyridin-6-yl)-3-(2-methyl-2,6-diazaspiro[3.4]octan-6-yl)thieno[2,3-b]pyrazine-6-carboxamide]
- pIC50: 6.00 to 7.00

SMILES: COc1cc2nn(C)cc2cc1NC(=O)c1cc2ccc(C3CCCN(C)C3)nc2s1 (single isomer, unassigned) [Compound 185]
- pIC50: > 7.00

SMILES: COc1cn2nc(C)cc2cc1NC(=O)c1cc2ccc(N3CCC4(CCCN4C)C3)nc2s1 (single isomer, unassigned) [Compound 224]
- pIC50: > 7.00

SMILES: Cc1cn2cc(NC(=O)c3cc4ccc(N5C[C@@H](C)N(C)[C@@H](C)C5)nc4s3)cc(F)c2n1 [Compound 69, N-(8-fluoro-2-methylimidazo[1,2-a]pyridin-6-yl)-6-((3R,5S)-3,4,5-trimethylpiperazin-1-yl)thieno[2,3-b]pyridine-2-carboxamide]
- pIC50: > 7.00

SMILES: CN(C)C1CCN(c2ccc3cc(C(=O)Nc4cnn5c(C(F)(F)F)ccnc45)sc3n2)C1 (stereo not drawn) [Compound 60, 6-(3-(dimethylamino)pyrrolidin-1-yl)-N-(7-(trifluoromethyl)pyrazolo[1,5-a]pyrimidin-3-yl)thieno[2,3-b]pyridine-2-carboxamide]
- pIC50: 5.05 to 6.00

SMILES: Cc1cn2cc(NC(=O)c3cc4ccc([C@H]5CCCNC5)nc4s3)cc(F)c2n1 (single isomer, unassigned) [Compound 81]
- pIC50: > 7.00

SMILES: COc1cc2nn(C)cc2cc1NC(=O)c1cc2ccc(N3CC(N4CCC4)C3)nc2s1 [Compound 232, 6-([1,3′-biazetidin]-1′-yl)-N-(6-methoxy-2-methyl-2H-indazol-5-yl)thieno[2,3-b]pyridine-2-carboxamide]
- pIC50: > 7.00

SMILES: Cc1cn2cc(NC(=O)c3cc4ccc(N5CCC6C(CCCN6C)C5)nc4s3)ccc2n1 (stereo not drawn) [Compound 36, N-(2-methylimidazo[1,2-a]pyridin-6-yl)-6-(1-methyloctahydro-1,6-naphthyridin-6(2H)-yl)thieno[2,3-b]pyridine-2-carboxamide]
- pIC50: 6.00 to 7.00

SMILES: Cc1cn2cc(NC(=O)c3cc4ccc(N5CCC6(CN(C)C6)C5)nc4s3)nc(C)c2n1 [Compound 226, N-(2,8-dimethylimidazo[1,2-a]pyrazin-6-yl)-6-(2-methyl-2,6-diazaspiro[3.4]octan-6-yl)thieno[2,3-b]pyridine-2-carboxamide]
- pIC50: > 7.00

SMILES: COc1cc2nn(C)cc2cc1NC(=O)c1cc2ccc(N[C@@H]3CC(C)(C)NC(C)(C)[C@@H]3F)nc2s1 (racemic) [Compound 260, 6-(((3R,4R)-3-fluoro-2,2,6,6-tetramethylpiperidin-4-yl)amino)-N-(6-methoxy-2-methyl-2H-indazol-5-yl)thieno[2,3-b]pyridine-2-carboxamide]
- pIC50: > 7.00

SMILES: COc1cn2nc(C)cc2cc1NC(=O)c1cc2ccc(N3CCC(N(C)C)C3)nc2s1 (stereo not drawn) [Compound 190, 6-(3-(dimethylamino)pyrrolidin-1-yl)-N-(6-methoxy-2-methylpyrazolo[1,5-a]pyridin-5-yl)thieno[2,3-b]pyridine-2-carboxamide]
- pIC50: > 7.00

SMILES: Cc1cn2cc(NC(=O)c3cc4nc(N5CCN(C)CC5)ccc4o3)cc(F)c2n1 [Compound 165, N-(8-fluoro-2-methylimidazo[1,2-a]pyridin-6-yl)-5-(4-methylpiperazin-1-yl)furo[3,2-b]pyridine-2-carboxamide]
- pIC50: > 7.00

SMILES: Cc1cn2cc(NC(=O)c3cc4ccc(N5CC[C@@H](N(C)C)C5)nc4s3)cc(F)c2n1 [Compound 10, 6-[(3R)-3-(dimethylamino)pyrrolidin-1-yl]-N-(8-fluoro-2-methyl-imidazo[1,2-a]pyridin-6-yl)thieno[2,3-b]pyridine-2-carboxamide]
- pIC50: > 7.00

SMILES: CC(C)n1ncc2ccc(NC(=O)c3cc4ccc(N5CCC(N(C)C)C5)nc4s3)cc21 (stereo not drawn) [Compound 61, 6-(3-(dimethylamino)pyrrolidin-1-yl)-N-(1-isopropyl-1H-indazol-6-yl)thieno[2,3-b]pyridine-2-carboxamide]
- pIC50: 5.05 to 6.00

SMILES: COc1c(NC(=O)c2cc3ccc(N4C[C@@H]5CN(C)C[C@@H]54)nc3s2)cc2cn(C)nc2c1F [Compound 235, N-(7-fluoro-6-methoxy-2-methyl-2H-indazol-5-yl)-6-((1S,5R)-3-methyl-3,6-diazabicyclo[3.2.0]heptan-6-yl)thieno[2,3-b]pyridine-2-carboxamide]
- pIC50: > 7.00

SMILES: Cc1cn2cc(NC(=O)c3cc4ccc(OC5CCNC(C)(C)C5)nc4s3)cc(F)c2n1 (racemic) [Compound 158, 6-((2,2-dimethylpiperidin-4-yl)oxy)-N-(8-fluoro-2-methylimidazo[1,2-a]pyridin-6-yl)thieno[2,3-b]pyridine-2-carboxamide]
- pIC50: > 7.00

SMILES: Cc1cn2cc(NC(=O)c3cc4ccc(N5CCC(N(C)C)C5)nc4s3)ccc2n1 (stereo in doubt) [Compound 26, (S)-6-(3-(dimethylamino)pyrrolidin-1-yl)-N-(2-methylimidazo[1,2-a]pyridin-6-yl)thieno[2,3-b]pyridine-2-carboxamide]
- pIC50: 6.00 to 7.00

SMILES: COc1nc(NC(=O)c2nc3ccc(N4CC[C@@H](N(C)C)C4)nc3s2)cn2cc(C)nc12 [Compound 117, (R)-5-(3-(dimethylamino)pyrrolidin-1-yl)-N-(8-methoxy-2-methylimidazo[1,2-a]pyrazin-6-yl)thiazolo[5,4-b]pyridine-2-carboxamide]
- pIC50: > 7.00

SMILES: Cc1cn2cc(NC(=O)c3cc4nc(N5CC[C@@H](N(C)C)C5)ccc4o3)cc(F)c2n1 [Compound 166, (R)-5-(3-(dimethylamino)pyrrolidin-1-yl)-N-(8-fluoro-2-methylimidazo[1,2-a]pyridin-6-yl)furo[3,2-b]pyridine-2-carboxamide]
- pIC50: > 7.00

SMILES: Cc1cn2cc(NC(=O)c3cc4cnc(N5CC[C@H](N(C)C)C5)nc4s3)cc(F)c2n1 [Compound 152, 2-[(3S)-3-(dimethylamino)pyrrolidin-1-yl]-N-(8-fluoro-2-methyl-imidazo[1,2-a]pyridin-6-yl)thieno[2,3-d]pyrimidine-6-carboxamide]
- pIC50: 6.00 to 7.00

SMILES: Cc1cn2cc(NC(=O)c3cc4ccc(N5CC6CCC5CN6C)nc4s3)ccc2n1 (stereo not drawn) [Compound 27, 6-(5-methyl-2,5-diazabicyclo[2.2.2]octan-2-yl)-N-(2-methylimidazo[1,2-a]pyridin-6-yl)thieno[2,3-b]pyridine-2-carboxamide]
- pIC50: 6.00 to 7.00

SMILES: COc1nc(NC(=O)c2cc3nc(C4CCN(C)CC4)ccc3o2)cn2cc(C)nc12 [Compound 262, N-(8-methoxy-2-methylimidazo[1,2-a]pyrazin-6-yl)-5-(1-methylpiperidin-4-yl)furo[3,2-b]pyridine-2-carboxamide]
- pIC50: 6.00 to 7.00

SMILES: COc1cc(NC(=O)c2cc3ccc(N4CCC(N(C)C)C4)nc3s2)cn2cc(C)nc12 (stereo not drawn) [Compound 72, 6-(3-(dimethylamino)pyrrolidin-1-yl)-N-(8-methoxy-2-methylimidazo[1,2-a]pyridin-6-yl)thieno[2,3-b]pyridine-2-carboxamide]
- pIC50: 6.00 to 7.00

SMILES: Cc1cn2cc(NC(=O)c3cc4ccc(N5C[C@H]6C[C@@H]5CN6C(C)C)nc4s3)ccc2n1 (stereo in doubt) [Compound 34, 6-((1R,4R)-5-isopropyl-2,5-diazabicyclo[2.2.1]heptan-2-yl)-N-(2-methylimidazo[1,2-a]pyridin-6-yl)thieno[2,3-b]pyridine-2-carboxamide]
- pIC50: > 7.00

SMILES: CCN1CCN(c2ccc3oc(C(=O)Nc4cc5cc(C)nn5cc4OC)cc3n2)CC1 [Compound 259, 5-(4-ethylpiperazin-1-yl)-N-(6-methoxy-2-methylpyrazolo[1,5-a]pyridin-5-yl)furo[3,2-b]pyridine-2-carboxamide]
- pIC50: 6.00 to 7.00

SMILES: COc1cc(NC(=O)c2cc3nc(N4C[C@H]5CN(C)C[C@H]54)ccc3o2)cn2cc(C)nc12 (stereo in doubt) [Compound 168, N-(8-methoxy-2-methyl-imidazo[1,2-a]pyridin-6-yl)-5-[(1R,5S)-3-methyl-3,6-diazabicyclo[3.2.0]heptan-6-yl]furo[3,2-b]pyridine-2-carboxamide]
- pIC50: > 7.00

SMILES: Cc1cn2cc(NC(=O)c3cc4ccc(N5C[C@@H]6[C@H](C5)[C@H]6N(C)C)nc4s3)ccc2n1 [Compound 24, 6-((1R,5S,6s)-6-(dimethylamino)-3-azabicyclo[3.1.0]hexan-3-yl)-N-(2-methylimidazo[1,2-a]pyridin-6-yl)thieno[2,3-b]pyridine-2-carboxamide]
- pIC50: 5.05 to 6.00

SMILES: Cc1cn2cc(NC(=O)c3nc4ccc(N5CCC6(CCN6)C5)nc4s3)cc(F)c2n1 (single isomer, unassigned) [Compound 111]
- pIC50: > 7.00

SMILES: Cc1cn2cc(NC(=O)c3cc4ccc(N5CCC(N(C)C)C5)nc4s3)ccc2n1 (stereo in doubt) [Compound 25, (R)-6-(3-(dimethylamino)pyrrolidin-1-yl)-N-(2-methylimidazo[1,2-a]pyridin-6-yl)thieno[2,3-b]pyridine-2-carboxamide]
- pIC50: 6.00 to 7.00

SMILES: Cc1cn2cc(NC(=O)c3cc4ccc(N5C[C@H]6CN[C@H]6C5)nc4s3)cc(F)c2n1 [Compound 202, 6-((1R,5R)-3,6-diazabicyclo[3.2.0]heptan-3-yl)-N-(8-fluoro-2-methylimidazo[1,2-a]pyridin-6-yl)thieno[2,3-b]pyridine-2-carboxamide]
- pIC50: > 7.00
